Results as given in patent US10294202B2, “Pyrrolidinones as herbicides” (FMC Corporation, priority 2013, dated 2019).

How the values were obtained:
pigweed = assay: Test C pre-/postemergence herbicide test; format: in vivo, Amaranthus retroflexus; details: Preemergence; for Plant response rating, Pigweed: 125 g ai/ha; for Plant response rating (scale of 0 to 100), Pigweed: 250 g ai/ha
In short: (§1)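 Test compounds, formulated in a surfactant-containing non-phytotoxic solvent blend, are applied to seeded loam/sand soil (preemergence) and to young plants at the 1- to 4-leaf stage in peat-based medium (postemergence). Plants stay 13 to 15 days under greenhouse conditions, then are scored visually relative to controls, 0 = no effect, 100 = complete control.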

galium = assay: Test C pre-/postemergence herbicide test; format: in vivo, Galium aparine; details: Preemergence; for Plant response rating, Galium: 125 g ai/ha; for Plant response rating (scale of 0 to 100), Galium: 250 g ai/ha
In short: as §1

johnsongrass = assay: Test C pre-/postemergence herbicide test; format: in vivo, Sorghum halepense; details: Preemergence; for Plant response rating, Johnsongrass: 125 g ai/ha; for Plant response rating (scale of 0 to 100), Johnsongrass: 250 g ai/ha
In short: as §1

wheat = assay: Test A pre-/postemergence herbicide test; format: in vivo, Triticum aestivum
In short: (§2)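 Planted in loam–sand blend; treated the same day preemergence by directed soil spray, while separately grown plants at one- to two-leaf stage got postemergence spray. Compared visually with untreated controls after approximately 10 days; 100 means complete control.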

wheat (winter wheat) = assay: Test C pre-/postemergence herbicide test; format: in vivo, Triticum aestivum; details: Preemergence; for Plant response rating (scale of 0 to 100), Wheat: 250 g ai/ha
In short: as §1

morningglory = assay: Test C pre-/postemergence herbicide test; format: in vivo, Ipomoea coccinea; details: Preemergence; for Plant response rating, Morningglory: 125 g ai/ha; for Plant response rating (scale of 0 to 100), Morningglory: 250 g ai/ha
In short: as §1

barnyardgrass = assay: Test C pre-/postemergence herbicide test; format: in vivo, Echinochloa crus-galli; details: Preemergence; for Plant response rating, Barnyardgrass: 125 g ai/ha; for Plant response rating (scale of 0 to 100; 0 is no effect, 100 is complete control), Barnyardgrass: 250 g ai/ha
In short: as §1

giant foxtail = assay: Test A pre-/postemergence herbicide test; format: in vivo, Setaria faberii
In short: as §2

foxtail, giant = assay: Test C pre-/postemergence herbicide test; format: in vivo, Setaria faberii; details: Preemergence; for Plant response rating, Foxtail, Giant: 125 g ai/ha; for Plant response rating (scale of 0 to 100), Foxtail, Giant: 250 g ai/ha
In short: as §1

lambsquarters = assay: Test C pre-/postemergence herbicide test; format: in vivo, Chenopodium album; details: Preemergence; for Plant response rating, Lambsquarters: 125 g ai/ha; for Plant response rating (scale of 0 to 100), Lambsquarters: 250 g ai/ha
In short: as §1

[1] = 31 g ai/ha, scale 0 to 100, 0 is no effect and 100 is complete control
[2] = 62 g ai/ha, scale 0 to 100 (0 no effect, 100 complete control)
[3] = scale 0 to 100 (0 no effect, 100 complete control)
[4] = Postemergence, 125 g ai/ha, 0 to 100 scale, 0 is no effect, 100 is complete control
[5] = Postemergence, 500 g ai/ha, 0 to 100 scale (0 no effect, 100 complete control)
[6] = Preemergence, 125 g ai/ha, 0 to 100 scale where 0 is no effect and 100 is complete control
[7] = preemergence, 500 g ai/ha, 0 to 100 scale, 0 is no effect and 100 is complete control

| Compound | Pigweed plant response rating (pigweed; [1]) | Pigweed plant response rating (pigweed; [2]) | Plant response rating, Pigweed (pigweed; [3]) | Plant response rating (scale of 0 to 100), Pigweed (pigweed) | Galium plant response rating (galium; [1]) | Galium plant response rating (galium; [2]) | Plant response rating, Galium (galium; [3]) | Plant response rating (scale of 0 to 100), Galium (galium) | Johnsongrass plant response rating (johnsongrass; [1]) | Johnsongrass plant response rating (johnsongrass; [2]) | Plant response rating, Johnsongrass (johnsongrass; [3]) | Plant response rating (scale of 0 to 100), Johnsongrass (johnsongrass) | Plant response rating, Wheat (wheat; [4]) | Plant response rating, Wheat (wheat; [5]) | Plant response rating, Wheat (wheat; [6]) | Plant response rating, Wheat (wheat; [7]) | Wheat plant response rating (wheat (winter wheat); [1]) | Wheat plant response rating (wheat (winter wheat); [2]) | Plant response rating (scale of 0 to 100), Wheat (wheat (winter wheat)) | Morningglory plant response rating (morningglory; [1]) | further results |
| --- | --- | --- | --- | --- | --- | --- | --- | --- | --- | --- | --- | --- | --- | --- | --- | --- | --- | --- | --- | --- | --- |
| O=C1NCC(c2ccc(C(F)(F)F)c(F)c2)C1C(=O)Nc1cccc(F)c1F (racemic) [Compound 247] | 0 | 55 | 85 | 90 | 90 | 90 | 90 | 90 | 0 | 0 | 10 | 5 | 0 | 30 | 0 | 0 | 0 | 0 | 0 | 0 | Morningglory plant response rating (morningglory; [2]): 0; Plant response rating, Morningglory (morningglory; [3]): 5; Plant response rating (scale of 0 to 100), Morningglory (morningglory): 20; Barnyardgrass plant response rating (barnyardgrass; [1]): 15; Barnyardgrass plant response rating (barnyardgrass; [2]): 85; Plant response rating, Barnyardgrass (barnyardgrass; [3]): 90; Plant response rating (scale of 0 to 100; 0 is no effect, 100 is complete control), Barnyardgrass (barnyardgrass): 90; Plant response rating, Foxtail, Giant (giant foxtail; [4]): 50; Plant response rating, Foxtail, Giant (giant foxtail; [5]): 80; Plant response rating, Foxtail, Giant (giant foxtail; [6]): 80; Plant response rating, Foxtail, Giant (giant foxtail; [7]): 90; Foxtail, Giant plant response rating (foxtail, giant; [1]): 95; Foxtail, Giant plant response rating (foxtail, giant; [2]): 95; Plant response rating, Foxtail, Giant (foxtail, giant; [3]): 98; Plant response rating (scale of 0 to 100), Foxtail, Giant (foxtail, giant): 100; Lambsquarters plant response rating (lambsquarters; [1]): 0; Lambsquarters plant response rating (lambsquarters; [2]): 90; Plant response rating, Lambsquarters (lambsquarters; [3]): 70; Plant response rating (scale of 0 to 100), Lambsquarters (lambsquarters): 80 |
| O=C1NCC(c2ccc(C(F)(F)F)nc2)C1C(=O)Nc1ccccc1F (racemic) [Compound 262] | 0 | 0 | 0 | 5 | 0 | 40 | 60 | 85 | 0 | 0 | 0 | 0 | 0 | 0 | 0 | 0 | 0 | 0 | 0 | 0 | Morningglory plant response rating (morningglory; [2]): 0; Plant response rating, Morningglory (morningglory; [3]): 10; Plant response rating (scale of 0 to 100), Morningglory (morningglory): 10; Barnyardgrass plant response rating (barnyardgrass; [1]): 45; Barnyardgrass plant response rating (barnyardgrass; [2]): 70; Plant response rating, Barnyardgrass (barnyardgrass; [3]): 90; Plant response rating (scale of 0 to 100; 0 is no effect, 100 is complete control), Barnyardgrass (barnyardgrass): 95; Plant response rating, Foxtail, Giant (giant foxtail; [4]): 60; Plant response rating, Foxtail, Giant (giant foxtail; [5]): 70; Plant response rating, Foxtail, Giant (giant foxtail; [6]): 80; Plant response rating, Foxtail, Giant (giant foxtail; [7]): 90; Foxtail, Giant plant response rating (foxtail, giant; [1]): 20; Foxtail, Giant plant response rating (foxtail, giant; [2]): 70; Plant response rating, Foxtail, Giant (foxtail, giant; [3]): 95; Plant response rating (scale of 0 to 100), Foxtail, Giant (foxtail, giant): 95; Lambsquarters plant response rating (lambsquarters; [1]): 100; Lambsquarters plant response rating (lambsquarters; [2]): 70; Plant response rating, Lambsquarters (lambsquarters; [3]): 80; Plant response rating (scale of 0 to 100), Lambsquarters (lambsquarters): 100 |
